A value given as a limit tells only on which side of the number the result lay.

In general, EC50 refers to the concentration needed to bring the measured effect to its halfway point.

Test [1] is described as follows: 2,2-Diphenyl-1-picrylhydrazyl (DPPH) cell-free antioxidant assay. Format: biochemical. The conditions noted are these: test compound 0.05 mM, 30 minutes. The protocol: The stable radical DPPH (Blois, 1958) was dissolved in methanol to a final working concentration of 0.05 mM. This was prepared as follows. First, a 100× stock concentration (5 mM) was prepared by dissolving 3.9 mg DPPH in 2 mL methanol. Then, for 25 mL of 0.05 mM final working solution, 250 μL of the 5 mM solution was added to 24.75 mL of methanol. 1 mL of DPPH solution was added to a small volume (<5 μL) each test compound dissolved in DMSO. The final concentration of each test compound was 0.05 mM. Samples were inverted several times and allowed to incubate at room temperature for 30 minutes. Samples were then aliquoted to white 96-well solid-bottom dishes (Corning) and absorbance at 517 nm was recorded using a TECAN M200 plate reader. All values were normalized to background (methanol only). The experiment was repeated three times and the data was averaged.
In parallel with the above cell-based assay, a 2,2-diphenyl-1-picrylhydrazyl (DPPH) assay was used to examine the ability of each analog to scavenge free radicals in a cell-free in vitro solution—a test of intrinsic antioxidant capacity. […] Redox active analogs scavenged the DPPH radical by 60-90% within 30 minutes (FIG. 18a).
(In general: Loss of DPPH colour is used to gauge radical scavenging.)

For test [2], the system named is HT-1080 cells. Nature of the test: Inhibition of erastin (10 μM)-induced death in HT-1080 cells (Alamar Blue). The conditions noted are these: for prevention of erastin-induced death: erastin-treated HT-1080 cells. In kind it is cell-based, human. The method in brief:
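HT-1080 cells (1,000/well) were treated next day with 10 μM erastin plus a compound dilution series for 24 h. Alamar Blue (10% final) was then added for 6 h and fluorescence read at ex/em 530/590.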
(In general: Alamar Blue is a resazurin reagent that responds to reducing activity.)

Test [3] has as its system rat organotypic hippocampal slice culture (OHSC). Put plainly: Glutamate excitotoxic injury in organotypic hippocampal slice cultures (PI uptake). Format: cell-based. The conditions noted are these: 5 mM L-glutamate 3 hours; Fer-1 2 μM, CPX 5 μM, MK-801 10 μM; 24 hours. The protocol: OHSCs were cultured as previously described (Morrison et al., 2002) with approval from Columbia University's Institutional Animal Care and Use Committee (IACUC). Briefly, Sprague Dawley rat pups (P8-P10) were rapidly decapitated, and the hippocampus placed in ice-cold Gey's balanced salt solution (Sigma). 400 μm thick sections were cut using a Mcllwain tissue chopper and immediately plated on Millicell cell culture inserts (Millipore, Billerica, Mass.) in Neurobasal (Invitrogen) media supplemented with B27 (1×, Invitrogen), GlutaMAX (1 mM, Invitrogen), and D-glucose (4.5 mg/mL, Sigma) at 37° C. and 5% CO2. After 2 days in vitro (DIV), the media was changed to medium containing serum comprised of 50% DMEM (Sigma), 25% heat-inactivated horse serum (Sigma), 25% Hank's balanced salt solution (Sigma), GlutaMAX (1 mM, Invitrogen), and D-glucose (4.5 mg/mL, Sigma). Medium was changed every 2-3 days.
After 10-14 DIV, OBSCs were exposed to an excitotoxic injury consisting of a 3 hour exposure to 5 mM L-glutamate in SFM (Morrison et al., 2002). […] After the 3 hour exposure, the cultures were placed in fresh serum free media (SFM) containing 75% DMEM, 25% Hank's balanced salt solution, GlutaMAX (1 mM), D-glucose (4.5 mg/mL) until cell death was quantified at 24 hours. […]
Quantification of cell death has been described previously (Cater et al., 2007; Morrison et al., 2002). […] Percentage cell death was expressed as the number of pixels in the ROI above a threshold in the PI fluorescent image divided by the total number of pixels in the ROI.
OHSCs were treated with a lethal excitotoxic stimulus (5 mM L-glutamate, 3 hours) that mimics the consequences of stroke and neurodegenerative disease (Morrison et al., 2002; Sundstrom et al., 2005) (FIG. 5A). […] The effects of these compound treatments on propidium iodide (PI) uptake were analyzed, as an indicator of cell death, 24 hours following the end of glutamate treatment, in 3 defined regions of the OHSCs: the dentate gyrus (DG), the CA1 and the CA3 fields of the hippocampus.

Test [4] deals with HT-1080 cells. Put plainly: Acridine orange relocalization (lysosomal membrane permeabilization) in HT-1080 cells. The conditions noted are these: acridine orange re-localization. In kind it is cell-based, human. The protocol:
200,000 HT-1080 cells were seeded into 6-well dishes (Corning). The next day, cells were incubated with 25 ng/mL of AO for 15 minutes, then medium was removed and cells were incubated in growth medium for 15 minutes. […] Relocalization of AO from lysosomes (discrete red puncta) to the cytosol (diffuse green color) was determined using an EVOS fl digital inverted fluorescent microscope (Advanced Microscopy Group) equipped with GFP (ex/em 470/525) and RFP (ex/em 531/593) light cubes.

Test [5] deals with BJeLR and HT-1080 cells. Put plainly: Measurement of ATP levels. In kind it is cell-based, human. Conditions: normalized to viability. The protocol: ATP levels were evaluated using the ApoSENSOR ATP Assay Kit (Biovision Inc., Milpitas, Calif.) according to the manufacturer's instructions. 2000 HT-1080 or BJeLR cells were seeded in 96-well white bottom plates (Falcon). Cells were treated 12 hours later with compound as above for the TEM. Prior to luminescence measurement, medium was removed and cells were lysed and incubated with ATP Monitoring Enzyme. Luminescence was measured using a Victor3 platereader equipped with an infrared emission filter every 30 seconds for 10 minutes. Typically the first reading was used for data analysis. Parallel cell culture treatments were performed in 96-well clear bottom plates and cell viability was determined using Alamar Blue. These values were used to normalize ATP levels to cell viability.

Test [6] relates to mouse kidney proximal tubules. Nature of the test: Hydroxyquinoline + iron induced cell death in isolated mouse kidney proximal tubules (LDH release). Format: cell-based. The conditions noted are these: 10 μM hydroxyquinoline and ferrous ammonium sulfate, 60 min. The protocol: Tubule preparation: 8-12 week old C57/BL6 female mice were euthanized with isoflurane. […] The cortices were then dissected and minced on an ice cold tile, then resuspended in additional Solution A for 8-10 min. of digestion at 37° C. followed by enrichment of proximal tubules using centrifugation on self-forming Percoll gradients as previously described for rabbit tubules.
Experimental procedures for isolated tubules: Tubules were suspended at 1.5-2.0 mg tubule protein/ml in a 95% air/5% CO2-gassed medium containing (in mM) 110 NaCl, 2.6 KCl, 25 NaHCO3, 2.4 KH2PO4, 1.25 CaCl2, 1.2 MgCl2, 1.2 MgSO4, 5 glucose, 4 sodium lactate, 0.3 alanine, 5 sodium butyrate, 2 glycine, and 1.0 mg/ml bovine gelatin (75 bloom) (Solution B). After precincubation for 15 min. at 37° C., then were then resuspended in fresh Solution B containing 2 mM heptanoic acid instead of sodium butyrate along with experimental compounds.
In addition, the efficacy of Fer-1, SRS11-92, and selected analogs was tested in a model of iron-induced cell death in freshly isolated mouse kidney proximal tubules that simulates major elements of rhabdomyolysis-induced acute kidney injury (FIG. 15C). Cell death in this model is known to involve oxidative lipid damage (Sogabe, et al., 1996, Park, et al., 2011); it was therefore believed that Fer-1 might be protective. 10 μM each of hydroxyquinoline and ferrous ammonium sulfate (HQ+Fe) were used to induce cell death, which was quantified by monitoring LDH release after 60 min. […] By implication, cell death in these models may involve, at least in part, the induction of lipid peroxidation and perhaps ferroptosis.
In general terms: LDH in the medium is a marker of cell lysis.

Test [7] relates to Calu-1 cells. Nature of the test: Erastin-induced ferroptosis in Calu-1 cells, NOX pathway inhibitors. Format: cell-based, human. The protocol:
(§1) Cell viability was typically assessed in 384-well format by Alamar Blue (Invitrogen) fluorescence (ex/em 530/590) measured on a Victor3 platereader (Perkin Elmer, Waltham, Mass.). In some experiments, Trypan Blue dye exclusion counting was performed using an automated cell counter (ViCell, Beckman-Coulter Inc., Brea, Calif.). Cell viability in test conditions is reported as a percentage relative to the negative control treatment.

Test [8] has as its system 143B osteosarcoma cells. Nature of the test: Erastin / RSL3 lethality in 143B ρ0 and ρ+ cells. In kind it is cell-based, human. Conditions: 24 hours. The protocol:
as §1
Because two erastin targets, VDAC2 and VDAC3, reside in the mitochondria, it was hypothesized that erastin-induced death involved aberrant ROS production by the mitochondrial electron transport chain (ETC). […] Furthermore, KRAS-mutant 143B osteosarcoma cells incapable of ETC-dependent ROS formation, due to the depletion of mitochondrial DNA (mtDNA)-encoded transcripts (ρ^0 cells), were as sensitive to erastin and RSL3 as matched mtDNA-wild-type (ρ^+) cells (FIGS. 1E, 1F, and 8C-E). Thus, erastin-induced cell death in human cancer cells involves DFO-sensitive ROS accumulation and can occur in cells lacking a functional ETC. This iron-dependent death phenotype was named ferroptosis.

Test [9] has as its target T1, system xc− (Homo sapiens, UniProt Q9UPY5).
T1 construct: endogenous in cells; host or cells: HT-1080 cells (ATCC)
T1 sequence (Q9UPY5 1-501): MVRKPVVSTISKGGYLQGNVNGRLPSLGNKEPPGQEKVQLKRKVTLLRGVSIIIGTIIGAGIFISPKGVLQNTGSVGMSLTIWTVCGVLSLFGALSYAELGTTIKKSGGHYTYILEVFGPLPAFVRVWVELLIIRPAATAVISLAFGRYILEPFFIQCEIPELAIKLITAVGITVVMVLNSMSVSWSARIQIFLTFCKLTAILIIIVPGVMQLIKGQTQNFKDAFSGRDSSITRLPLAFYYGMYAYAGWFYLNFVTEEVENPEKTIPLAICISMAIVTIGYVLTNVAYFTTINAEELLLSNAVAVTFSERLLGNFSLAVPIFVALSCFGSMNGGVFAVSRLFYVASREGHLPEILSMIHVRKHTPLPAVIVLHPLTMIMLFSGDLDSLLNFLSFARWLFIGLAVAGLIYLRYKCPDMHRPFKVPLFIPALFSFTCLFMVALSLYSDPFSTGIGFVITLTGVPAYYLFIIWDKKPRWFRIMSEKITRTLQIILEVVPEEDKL
T1 sequence (P08195 1-529 partner): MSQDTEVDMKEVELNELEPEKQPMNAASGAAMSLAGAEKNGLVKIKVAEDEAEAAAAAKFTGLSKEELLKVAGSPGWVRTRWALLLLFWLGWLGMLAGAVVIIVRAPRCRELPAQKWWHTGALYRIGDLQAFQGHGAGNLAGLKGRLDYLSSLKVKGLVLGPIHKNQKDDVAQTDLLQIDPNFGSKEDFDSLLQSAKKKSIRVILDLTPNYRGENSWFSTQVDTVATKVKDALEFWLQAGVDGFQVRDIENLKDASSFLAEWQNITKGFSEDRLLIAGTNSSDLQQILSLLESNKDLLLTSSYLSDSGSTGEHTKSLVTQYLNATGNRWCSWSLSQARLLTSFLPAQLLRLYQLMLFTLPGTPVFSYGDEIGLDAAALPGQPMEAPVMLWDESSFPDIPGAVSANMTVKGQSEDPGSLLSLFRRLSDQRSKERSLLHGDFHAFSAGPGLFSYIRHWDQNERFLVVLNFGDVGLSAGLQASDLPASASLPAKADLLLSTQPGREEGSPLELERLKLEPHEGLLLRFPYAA
Nature of the test: [14C]Cystine uptake assay in HT-1080 cells. Format: cell-based. The conditions noted are these: Erastin 10 μM, glutamate 50 mM, SAS 1 mM. The protocol:
200,000 HT-1080 cells/well were seeded overnight in 6-well dishes (Corning). […] At this point, in each well the buffer was replaced with 600 μL uptake buffer containing compound and 0.12 μCi (80-110 mCi/mmol) of L-[3,3′-^14C]-cystine (Perkin Elmer) and incubated for 3 minutes at 37° C. Cells were then washed three times with ice-cold uptake buffer and lysed in 500 μL 0.1 M NaOH. To this lysate was added 15 mL of scintillation fluid and radioactive counts per minute were obtained using a scintillation counter. All measurements were performed in triplicate for each condition.

The subject of test [10] is HT-1080 cells. Put plainly: Mitochondrial ROS (MitoSOX) in HT-1080 cells. In kind it is cell-based, human. Conditions: HT-1080, 6 hours; erastin 10 μM, rotenone 250 nM.
Method: 200,000 HT-1080 cells were seeded into 6-well dishes (Corning). The next day, cells were treated with +/−rotenone +/−ferrostatin-1 for 3 hours (for MitoSOX experiments) or +/−STS +/−ferrostatin-1 for 4 hours (for 10-N-nonylacridine orange [NAO] experiments), harvested by trypsinization and analyzed as follows. For the analysis of mitochondrial ROS, cells were incubated with 5 μM MitoSOX (Molecular Probes/Invitrogen) in HBSS for 10 minutes in the dark at 37° C. […] MitoSOX data were collected in the FL2 channel and NAO data was collected in the FL1 channel. Data are from three independent biological replicates of each experiment. Data were analyzed by one-way ANOVA with Bonferroni's post-hoc test.
A minimum of 10,000 cells were analyzed per condition.

Consider `CCOC(=O)c1ccc(N)c(N)c1` [CA1], for which the “intrinsic antioxidant capability in the DPPH assay” value in [1] was “destroyed the antioxidant capability”. Besides, the EC50 in test [2] (SI Table 8, read-out: EC50) was greater than 10 µM. For the same compound, the “prevention of erastin-induced death” value in [2] is given as “destroyed”.

As for `Cc1cc(C2CCCCC2)n(O)c(=O)c1` [CPX, ciclopirox olamine, reference compound], the “glutamate-induced cell death (PI uptake) in DG, CA1, CA3” value in test [3] is “attenuated significantly”. Moreover, in [4], the “lysosomal membrane destruction in response to H2O2” value is on record as “protects from lysosomal rupture”. In test [2], the “prevention of erastin-induced death” value is “suppressed erastin-induced death”.

On to `OO` [Compound H2O2, hydrogen peroxide], for which the “intracellular ATP” value in test [5] is “substantial depletion of intracellular ATP”.

As for `CN(C)c1cccc(-c2c3c(=O)n(-c4ccccc4Cl)[nH]c3cc(=O)n2C)c1` [GKT137831, reference compound], the “HQ+Fe induced lethality (LDH release)” value in [6] is listed as “protective”. The “suppression of erastin-induced ferroptosis” value in [7] is “strongly suppressed”.

In the case of `COC(=O)c1ccc([C@@H]2c3[nH]c4ccccc4c3C[C@@H](C(=O)OC)N2C(=O)CCl)cc1` [RSL3], the “sensitivity of ρ0 versus ρ+ cells” value in [8] is “as sensitive”. For the same compound, the “Na+-independent uptake of [14C]cystine” value in test [9] is recorded as “had no effect on this process”.

With `C=C(C)[C@H]1Cc2c(ccc3c2O[C@@H]2COc4cc(OC)c(OC)cc4[C@@H]2C3=O)O1` [rotenone, reference compound], the “MitoSOX-sensitive mitochondrial ROS production” value in test [10] was “enhanced MitoSOX-sensitive ROS production”.

The values are drawn from patent US11192849B2, “Compounds, compositions, and methods for modulating ferroptosis and treating excitotoxic disorders” (THE TRUSTEES OF COLUMBIA UNIVERSITY IN THE CITY OF NEW YORK, priority 2013, dated 2021).
